Data published in patent US6054435A, “6-O-substituted macrolides having antibacterial activity” (priority 1999, dated 2000).
Converted amounts (≈) assume the structure as drawn.

Legend:
Experiment in all cases: in vitro antibacterial activity (MIC), agar dilution
Type in all cases: cell-based
[1] = test system: Micrococcus luteus ATCC 4698; conditions: organism code PP; BHI agar, 35-37° C., 20 to 24 hours; unit assumed
Outline: (§1)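 Endpoint: lowest concentration with no growth, slight haze or sparsely isolated colonies at the inoculum spot, judged against a compound-free BHI control. Strains were replicator-inoculated at 1:100 (1:10 for Streptococcus and other slow growers).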

[2] = test system: Haemophilis Influenzae DILL AMP R; conditions: organism code WW; BHI agar, 35-37° C., 20 to 24 hours; unit assumed
Outline: (§2)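 Plates of BHI agar were prepared with twelve aqueous dilutions of compound, then inoculated at 1:100 dilution, or 1:10 for slow growers like Streptococcus. After incubation they were inspected, and the lowest concentration yielding no growth, slight haze or sparse colonies was recorded as MIC.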

[3] = test system: Staphylococcus aureus ATCC 6538P; conditions: organism code AA; BHI agar, 35-37° C., 20 to 24 hours; unit assumed
Outline: as §2

[4] = test system: Mycobacterium smegmatis ATCC 114; conditions: organism code UU; BHI agar, 35-37° C., 20 to 24 hours; unit assumed
Outline: as §2

[5] = test system: Staphylococcus aureus CMX 553; conditions: organism code FF; BHI agar, 35-37° C., 20 to 24 hours; unit assumed
Outline: as §2

[6] = test system: Staphylococcus aureus NCTC10649M; conditions: organism code EE; BHI agar, 35-37° C., 20 to 24 hours; unit assumed
Outline: as §2

[7] = test system: Staphylococcus aureus A5177; conditions: organism code BB; BHI agar, 35-37° C., 20 to 24 hours; unit assumed
Outline: as §2

[8] = test system: Staphylococcus aureus 1775; conditions: organism code GG; BHI agar, 35-37° C., 20 to 24 hours; unit assumed
Outline: as §2

[9] = test system: Staphylococcus epidermidis 3519; conditions: organism code HH; BHI agar, 35-37° C., 20 to 24 hours; unit assumed
Outline: as §2

[10] = test system: Streptococcus Pneumonia ATCC6303; conditions: organism code XX; BHI agar, 35-37° C., 20 to 24 hours; unit assumed
Outline: as §2

[11] = test system: Streptococcus Pneumonia GYR 1171; conditions: organism code YY; BHI agar, 35-37° C., 20 to 24 hours; unit assumed
Outline: as §2

[12] = test system: Streptococcus agalactiae CMX 508; conditions: organism code KK; BHI agar, 35-37° C., 20 to 24 hours; unit assumed
Outline: as §2

[13] = test system: Streptococcus bovis A-5169; conditions: organism code JJ; BHI agar, 35-37° C., 20 to 24 hours; unit assumed
Outline: as §2

[14] = test system: Streptococcus pyogenes 930; conditions: organism code MM; BHI agar, 35-37° C., 20 to 24 hours; unit assumed
Outline: as §2

[15] = test system: Staphylococcus aureus A-5278; conditions: organism code CC; BHI agar, 35-37° C., 20 to 24 hours; unit assumed
Outline: as §2

[16] = test system: Streptococcus pyogenes PIU 2548; conditions: organism code NN; BHI agar, 35-37° C., 20 to 24 hours; unit assumed
Outline: as §2

[17] = test system: Nocardia Asteroides ATCC9970; conditions: organism code VV; BHI agar, 35-37° C., 20 to 24 hours; unit assumed
Outline: as §2

Escherichia coli SS = conditions: organism code RR; BHI agar, 35-37° C., 20 to 24 hours; unit assumed
Outline: as §2

Escherichia coli JUHL = conditions: organism code QQ; BHI agar, 35-37° C., 20 to 24 hours; unit assumed
Outline: as §2

[18] = test system: Streptococcus Pneumonia 5979; conditions: organism code ZZ; BHI agar, 35-37° C., 20 to 24 hours; unit assumed
Outline: as §2

[19] = test system: Streptococcus pyogenes EES61; conditions: organism code LL; BHI agar, 35-37° C., 20 to 24 hours; unit assumed
Outline: as §2

[20] = test system: Staphylococcus aureus CMX 642A; conditions: organism code DD; BHI agar, 35-37° C., 20 to 24 hours; unit assumed
Outline: as §2

Escherichia coli DC-2 = conditions: organism code SS; BHI agar, 35-37° C., 20 to 24 hours; unit assumed
Outline: as §2

[21] = test system: Micrococcus luteus ATCC 9341; conditions: organism code OO; BHI agar, 35-37° C., 20 to 24 hours; unit assumed
Outline: as §1

[22] = test system: Streptococcus Pneumonia 5649; conditions: organism code ZZA; BHI agar, 35-37° C., 20 to 24 hours; unit assumed
Outline: as §2

[23] = test system: Enterococcus faecium ATCC 8043; conditions: organism code II; BHI agar, 35-37° C., 20 to 24 hours; unit assumed
Outline: as §2

Candida albicans CCH 442 = conditions: organism code TT; BHI agar, 35-37° C., 20 to 24 hours; unit assumed
Outline: as §2

| SMILES | MIC [1] [µg/mL] | MIC [2] [µg/mL] | MIC [3] [µg/mL] | MIC [4] [µg/mL] | MIC [5] [µg/mL] | MIC [6] [µg/mL] | MIC [7] [µg/mL] | MIC [8] [µg/mL] | MIC [9] [µg/mL] | MIC [10] [µg/mL] | MIC [11] [µg/mL] | MIC [12] [µg/mL] | MIC [13] [µg/mL] | MIC [14] [µg/mL] | MIC [15] [µg/mL] | MIC [16] [µg/mL] | MIC [17] [µg/mL] | MIC (Escherichia coli SS) [µg/mL] | MIC (Escherichia coli JUHL) [µg/mL] | MIC [18] [µg/mL] | further results |
| --- | --- | --- | --- | --- | --- | --- | --- | --- | --- | --- | --- | --- | --- | --- | --- | --- | --- | --- | --- | --- | --- |
| CC[C@H]1OC(=O)[C@H](C)C(=O)[C@H](C)[C@@H](O[C@@H]2O[C@H](C)C[C@H](N(C)C)[C@H]2O)[C@](C)(OC/C=C/c2cnc(-c3cnccn3)s2)C[C@@H](C)C(=O)[C@H](C)[C@H]2NC(=O)O[C@@]21C [Example 58] | 0.05 (≈ 0.0625 µM) | 4 (≈ 5 µM) | 0.1 (≈ 0.125 µM) | 1.56 (≈ 1.95 µM) | 0.05 (≈ 0.0625 µM) | 0.1 (≈ 0.125 µM) | 0.05 (≈ 0.0625 µM) | > 100 | 0.1 (≈ 0.125 µM) | ≤ 0.004 | ≤ 0.004 | 0.02 (≈ 0.025 µM) | 0.01 (≈ 0.0125 µM) | 3.1 (≈ 3.88 µM) | > 100 | 0.1 (≈ 0.125 µM) | 0.02 (≈ 0.025 µM) | 0.2 (≈ 0.25 µM) | 50 (≈ 62.5 µM) | 4 (≈ 5 µM) | MIC [19]: 0.02 µg/mL (≈ 0.025 µM); MIC [20]: 0.1 µg/mL (≈ 0.125 µM); MIC (Escherichia coli DC-2): 100 µg/mL (≈ 125 µM); MIC [21]: 0.01 µg/mL (≈ 0.0125 µM); MIC [22]: 0.25 µg/mL (≈ 0.313 µM); MIC [23]: 0.02 µg/mL (≈ 0.025 µM); MIC (Candida albicans CCH 442): > 100 µg/mL |
| CC[C@H]1OC(=O)[C@H](C)C(=O)[C@H](C)[C@@H](O[C@@H]2O[C@H](C)C[C@H](N(C)C)[C@H]2O)[C@](C)(OC/C=C/c2ccc(-c3ccc(Cl)c(Cl)c3)s2)C[C@@H](C)C(=O)[C@H](C)[C@H]2NC(=O)O[C@@]21C [Example 71] | 0.39 (≈ 0.45 µM) | 16 (≈ 18.5 µM) | 0.39 (≈ 0.45 µM) | 0.39 (≈ 0.45 µM) | 0.39 (≈ 0.45 µM) | 0.39 (≈ 0.45 µM) | 0.39 (≈ 0.45 µM) | 12.5 (≈ 14.4 µM) | 0.39 (≈ 0.45 µM) | 0.125 (≈ 0.144 µM) | 0.125 (≈ 0.144 µM) | 0.1 (≈ 0.115 µM) | 0.05 (≈ 0.0577 µM) | 3.1 (≈ 3.58 µM) | 12.5 (≈ 14.4 µM) | 0.39 (≈ 0.45 µM) | 0.39 (≈ 0.45 µM) | 3.1 (≈ 3.58 µM) | > 100 | 4 (≈ 4.62 µM) | MIC [19]: 0.1 µg/mL (≈ 0.115 µM); MIC [20]: 0.39 µg/mL (≈ 0.45 µM); MIC (Escherichia coli DC-2): > 100 µg/mL; MIC [21]: 0.39 µg/mL (≈ 0.45 µM); MIC [22]: 1 µg/mL (≈ 1.15 µM); MIC [23]: 0.39 µg/mL (≈ 0.45 µM); MIC (Candida albicans CCH 442): > 100 µg/mL |
| CC[C@H]1OC(=O)[C@H](C)C(=O)[C@H](C)[C@@H](O[C@@H]2O[C@H](C)C[C@H](N(C)C)[C@H]2O)[C@](C)(OC/C=C/c2cnc(-c3cncs3)s2)C[C@@H](C)C(=O)[C@H](C)[C@H]2NC(=O)O[C@@]21C [Example 60] | 0.02 (≈ 0.0248 µM) | 4 (≈ 4.97 µM) | 0.1 (≈ 0.124 µM) | 1.56 (≈ 1.94 µM) | 0.05 (≈ 0.0621 µM) | 0.1 (≈ 0.124 µM) | 0.05 (≈ 0.0621 µM) | > 100 | 0.1 (≈ 0.124 µM) | ≤ 0.004 | ≤ 0.004 | 0.01 (≈ 0.0124 µM) | ≤ 0.005 | 3.1 (≈ 3.85 µM) | > 100 | 0.2 (≈ 0.248 µM) | 0.01 (≈ 0.0124 µM) | 0.2 (≈ 0.248 µM) | 50 (≈ 62.1 µM) | 1 (≈ 1.24 µM) | MIC [19]: 0.01 µg/mL (≈ 0.0124 µM); MIC [20]: 0.05 µg/mL (≈ 0.0621 µM); MIC (Escherichia coli DC-2): 100 µg/mL (≈ 124 µM); MIC [21]: ≤ 0.005 µg/mL; MIC [22]: 0.25 µg/mL (≈ 0.311 µM); MIC [23]: 0.02 µg/mL (≈ 0.0248 µM); MIC (Candida albicans CCH 442): > 100 µg/mL |
| CC[C@H]1OC(=O)[C@H](C)C(=O)[C@H](C)[C@@H](O[C@@H]2O[C@H](C)C[C@H](N(C)C)[C@H]2O)[C@](C)(OCC#Cc2ccc(-c3cc4ccccc4s3)s2)C[C@@H](C)C(=O)[C@H](C)[C@H]2NC(=O)O[C@@]21C [Example 34] | 0.2 (≈ 0.235 µM) | 16 (≈ 18.8 µM) | 0.39 (≈ 0.458 µM) | 0.39 (≈ 0.458 µM) | 0.2 (≈ 0.235 µM) | 0.2 (≈ 0.235 µM) | 0.2 (≈ 0.235 µM) | 12.5 (≈ 14.7 µM) | 0.39 (≈ 0.458 µM) | 0.25 (≈ 0.294 µM) | 0.25 (≈ 0.294 µM) | 0.02 (≈ 0.0235 µM) | 0.02 (≈ 0.0235 µM) | 1.56 (≈ 1.83 µM) | 50 (≈ 58.7 µM) | 0.39 (≈ 0.458 µM) | 0.39 (≈ 0.458 µM) | 1.56 (≈ 1.83 µM) | > 100 | 8 (≈ 9.4 µM) | MIC [19]: 0.02 µg/mL (≈ 0.0235 µM); MIC [20]: 0.39 µg/mL (≈ 0.458 µM); MIC (Escherichia coli DC-2): > 100 µg/mL; MIC [21]: 0.02 µg/mL (≈ 0.0235 µM); MIC [22]: 2 µg/mL (≈ 2.35 µM); MIC [23]: 0.2 µg/mL (≈ 0.235 µM); MIC (Candida albicans CCH 442): > 100 µg/mL |
| CC[C@H]1OC(=O)[C@H](C)C(=O)[C@H](C)[C@@H](O[C@@H]2O[C@H](C)C[C@H](N(C)C)[C@H]2O)[C@](C)(OCC#Cc2ccc(-c3cccs3)s2)C[C@@H](C)C(=O)[C@H](C)[C@H]2NC(=O)O[C@@]21C [Example 25] | 0.2 (≈ 0.25 µM) | 2 (≈ 2.5 µM) | 0.2 (≈ 0.25 µM) | 0.39 (≈ 0.487 µM) | 0.1 (≈ 0.125 µM) | 0.2 (≈ 0.25 µM) | 0.1 (≈ 0.125 µM) | 25 (≈ 31.2 µM) | 0.1 (≈ 0.125 µM) | ≤ 0.004 | ≤ 0.004 | 0.1 (≈ 0.125 µM) | 0.1 (≈ 0.125 µM) | 1.56 (≈ 1.95 µM) | 25 (≈ 31.2 µM) | 0.2 (≈ 0.25 µM) | 0.39 (≈ 0.487 µM) | 0.2 (≈ 0.25 µM) | 100 (≈ 125 µM) | 0.25 (≈ 0.312 µM) | MIC [19]: 0.005 µg/mL (≈ 0.00624 µM); MIC [20]: 0.2 µg/mL (≈ 0.25 µM); MIC (Escherichia coli DC-2): > 100 µg/mL; MIC [21]: 0.05 µg/mL (≈ 0.0624 µM); MIC [22]: 0.125 µg/mL (≈ 0.156 µM); MIC [23]: 0.1 µg/mL (≈ 0.125 µM); MIC (Candida albicans CCH 442): 12.5 µg/mL (≈ 15.6 µM) |
